Experimental data published in ChEMBL document CHEMBL1201862, “PubChem BioAssay data set” (2004).
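Exposure lasted 48 hours, with cells grown in 96-well plates and compounds tested at five concentrations. GI50 = concentration required for 50% inhibition of growth.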 Active and inactive are the calls of the source. No stated cut-off is given here; in the data, active = GI50 up to about 1.1 µM and inactive = higher.

Key:
Experiment in all cases: NCI anticancer screen, dose series, 48 h
HL-60 = system: HL-60
HOP-62 = system: HOP-62
SNB-75 = system: SNB-75
K562 = system: K562
A498 = system: A498
IGROV-1 = system: IGROV-1
HCT-15 = system: HCT-15
SF-539 = system: SF-539
UO-31 = system: UO-31
SN12C = system: SN12C
RXF 393 = system: RXF 393
U-251 = system: U-251
NCI-H460 = system: NCI-H460
SF-268 = system: SF-268
SK-MEL-2 = system: SK-MEL-2
Malme-3M = system: Malme-3M
CAKI-1 = system: CAKI-1

Measured: GI50

N#CC1C[C@@H]2CC3(CCC2CN1C(=O)c1ccccc1)OCCO3 (some centres undefined)
active: SK-MEL-2 0.0925 µM
inactive: HL-60 > 100 µM | HOP-62 > 100 µM | SNB-75 > 100 µM | K562 > 100 µM | A498 > 100 µM | IGROV-1 > 100 µM | SF-539 > 100 µM | UO-31 > 100 µM | SN12C > 100 µM | RXF 393 > 100 µM | U-251 > 100 µM | NCI-H460 > 100 µM | SF-268 > 100 µM | Malme-3M > 100 µM
> 100 µM: HCT-15

Clc1ccc(C2=NOC(C3CCCCC3)C2)cc1 (centres undefined)
> 100 µM: HCT-15
inactive: HL-60 > 100 µM | HOP-62 > 100 µM | SNB-75 > 100 µM | K562 > 100 µM | A498 > 100 µM | IGROV-1 > 100 µM | SF-539 > 100 µM | UO-31 > 100 µM | SN12C > 100 µM | U-251 > 100 µM | NCI-H460 > 100 µM | SF-268 > 100 µM | SK-MEL-2 > 100 µM | Malme-3M > 100 µM

O=C(CP(=O)(O)O)c1cccs1
> 100 µM: HCT-15
inactive: HL-60 > 100 µM | HOP-62 > 100 µM | SNB-75 > 100 µM | K562 > 100 µM | A498 > 100 µM | IGROV-1 > 100 µM | SF-539 > 100 µM | UO-31 > 100 µM | SN12C > 100 µM | U-251 > 100 µM | NCI-H460 > 100 µM | SF-268 > 100 µM | SK-MEL-2 > 100 µM | CAKI-1 > 100 µM | Malme-3M > 100 µM

CCOc1cc2c(cnc3c4cc(OC)c(OC)cc4ccc23)cc1OC
> 100 µM: HCT-15
inactive: HOP-62 > 100 µM | SNB-75 > 100 µM | K562 > 100 µM | A498 > 100 µM | IGROV-1 > 100 µM | SF-539 > 100 µM | UO-31 > 100 µM | SN12C > 100 µM | U-251 > 100 µM | NCI-H460 > 100 µM | SF-268 > 100 µM | SK-MEL-2 > 100 µM | CAKI-1 > 100 µM | Malme-3M > 100 µM

COc1ccc2c(c1)CCc1cnn(C3OC(COC(C)=O)C(OC(C)=O)C(OC(C)=O)C3OC(C)=O)c1-2 (centres undefined)
38.2 µM: HCT-15
inactive: HL-60 > 100 µM | HOP-62 > 100 µM | SNB-75 36.6 µM | K562 14.5 µM | A498 > 100 µM | SF-539 > 100 µM | SN12C > 100 µM | U-251 22.5 µM | NCI-H460 > 100 µM | SF-268 > 100 µM | SK-MEL-2 > 100 µM | CAKI-1 76.2 µM | Malme-3M > 10 µM

CCOC(=O)[C@H]1CSC[C@@H](C(=O)OC)N1
> 100 µM: HCT-15
inactive: HL-60 > 100 µM | HOP-62 > 100 µM | SNB-75 23.1 µM | K562 > 100 µM | A498 > 100 µM | IGROV-1 > 100 µM | UO-31 > 100 µM | SN12C > 100 µM | RXF 393 > 100 µM | U-251 > 100 µM | NCI-H460 > 100 µM | SF-268 > 100 µM | SK-MEL-2 > 100 µM | CAKI-1 > 100 µM | Malme-3M > 100 µM

O=C1CC(S(=O)(=O)O)C=C1Nc1cccc(Cl)c1 (centres undefined)
inactive: HL-60 > 100 µM | HOP-62 > 100 µM | SNB-75 > 100 µM | K562 > 100 µM | A498 > 100 µM | IGROV-1 > 100 µM | SF-539 > 100 µM | UO-31 > 100 µM | SN12C > 100 µM | RXF 393 > 100 µM | U-251 > 100 µM | NCI-H460 > 100 µM | SF-268 > 100 µM | SK-MEL-2 > 100 µM | CAKI-1 > 100 µM | Malme-3M > 100 µM

CCOC(=O)/C=C/c1ccccn1
> 100 µM: HCT-15
inactive: HL-60 > 100 µM | HOP-62 > 100 µM | SNB-75 > 100 µM | K562 > 100 µM | A498 > 100 µM | IGROV-1 > 100 µM | SF-539 > 100 µM | UO-31 > 100 µM | SN12C > 100 µM | U-251 > 100 µM | NCI-H460 > 100 µM | SF-268 > 100 µM | SK-MEL-2 > 100 µM | CAKI-1 > 100 µM | Malme-3M > 100 µM

O=C1CCSC2=C1SCc1sccc12
inactive: HL-60 > 100 µM | HOP-62 > 100 µM | SNB-75 30.5 µM | K562 > 100 µM | IGROV-1 > 100 µM | UO-31 > 100 µM | SN12C > 100 µM | RXF 393 > 100 µM | NCI-H460 > 100 µM | SF-268 > 100 µM | SK-MEL-2 > 100 µM | CAKI-1 > 100 µM | Malme-3M > 100 µM
> 100 µM: HCT-15

CCOC(=O)C(C[Si](C)(C)C)P(=O)(OCC)OCC (centres undefined)
inactive: HL-60 > 100 µM | HOP-62 > 100 µM | SNB-75 38.5 µM | K562 > 100 µM | IGROV-1 > 100 µM | SF-539 > 100 µM | UO-31 > 100 µM | SN12C > 100 µM | RXF 393 > 100 µM | U-251 > 100 µM | NCI-H460 > 100 µM | SF-268 > 100 µM | CAKI-1 > 100 µM | Malme-3M > 100 µM
> 100 µM: HCT-15

CC(=O)Nc1ccc(/C=C2\N=C(c3ccccc3)OC2=O)cc1
inactive: HL-60 76.7 µM | HOP-62 > 100 µM | SNB-75 64.9 µM | K562 > 100 µM | IGROV-1 > 31.6 µM | UO-31 > 100 µM | SN12C 55 µM | RXF 393 82.8 µM | U-251 > 100 µM | NCI-H460 68.5 µM | SF-268 > 100 µM | SK-MEL-2 > 100 µM | Malme-3M 6.1 µM
55.7 µM: HCT-15

Cc1cccc(C)c1NC(=O)CCCC(=O)C1CCC/C1=N\NC(=O)C(=O)NN (centres undefined)
> 100 µM: HCT-15
inactive: HL-60 > 100 µM | SNB-75 > 100 µM | K562 > 100 µM | A498 > 100 µM | SF-539 > 100 µM | UO-31 > 100 µM | SN12C > 100 µM | RXF 393 24.5 µM | U-251 > 100 µM | NCI-H460 > 100 µM | SF-268 > 100 µM | SK-MEL-2 > 100 µM | CAKI-1 > 100 µM | Malme-3M > 100 µM

O=C1CCCc2c(O)ccc(O)c21
inactive: HL-60 22.8 µM | HOP-62 > 100 µM | SNB-75 38.5 µM | K562 35.9 µM | A498 > 100 µM | IGROV-1 > 100 µM | SF-539 > 100 µM | UO-31 > 100 µM | SN12C > 100 µM | RXF 393 > 100 µM | U-251 > 100 µM | NCI-H460 > 100 µM | SF-268 48.5 µM | SK-MEL-2 > 100 µM | Malme-3M > 100 µM
> 100 µM: HCT-15

COc1cccc(C=O)c1[O-].COc1cccc(C=O)c1[O-].[Zn+2]
38 µM: HCT-15
inactive: HOP-62 46.9 µM | SNB-75 42 µM | K562 55.3 µM | A498 > 100 µM | IGROV-1 75.2 µM | SF-539 45.2 µM | UO-31 28.2 µM | SN12C 39.7 µM | RXF 393 > 100 µM | U-251 38.4 µM | NCI-H460 42.1 µM | SF-268 55.7 µM | SK-MEL-2 48.9 µM | Malme-3M 69 µM

CCCC(=O)CC(C)C(=O)C(=O)NC12CC3CC(CC(C3)C1)C2 (centres undefined)
inactive: HL-60 > 100 µM | HOP-62 > 100 µM | SNB-75 97.5 µM | K562 > 100 µM | UO-31 > 100 µM | SN12C > 100 µM | RXF 393 > 100 µM | U-251 > 100 µM | NCI-H460 > 100 µM | SF-268 > 100 µM | SK-MEL-2 > 100 µM | CAKI-1 > 100 µM | Malme-3M > 100 µM
> 100 µM: HCT-15

O=S1(=O)c2ccccc2NC(c2ccc3ccccc3c2)CC1c1ccccc1F (centres undefined)
> 100 µM: HCT-15
inactive: HL-60 > 100 µM | HOP-62 > 100 µM | SNB-75 > 100 µM | K562 > 100 µM | A498 > 100 µM | IGROV-1 > 100 µM | SF-539 > 100 µM | UO-31 > 100 µM | SN12C > 100 µM | RXF 393 > 100 µM | NCI-H460 > 100 µM | SF-268 > 100 µM | SK-MEL-2 > 100 µM | CAKI-1 > 100 µM | Malme-3M > 100 µM

COc1ccccc1C1c2cc3c(cc2OC(O)(CO)C1C(=O)O)OCO3.COc1ccccc1C1c2cc3c(cc2OC2(O)COC(=O)C12)OCO3 (centres undefined)
> 100 µM: HCT-15
inactive: HL-60 95.1 µM | HOP-62 > 100 µM | SNB-75 26.9 µM | K562 > 100 µM | A498 > 100 µM | IGROV-1 > 100 µM | SF-539 > 100 µM | UO-31 > 100 µM | SN12C > 100 µM | RXF 393 > 100 µM | U-251 > 100 µM | NCI-H460 > 100 µM | SF-268 > 100 µM | SK-MEL-2 > 100 µM | Malme-3M > 100 µM

O=C1NC(O)n2c(=O)[nH]c(=O)n21 (centres undefined)
> 100 µM: HCT-15
inactive: HL-60 71 µM | HOP-62 > 100 µM | SNB-75 > 100 µM | K562 > 100 µM | IGROV-1 > 100 µM | SF-539 > 100 µM | UO-31 > 100 µM | SN12C > 100 µM | RXF 393 > 100 µM | U-251 > 100 µM | NCI-H460 > 100 µM | SF-268 > 100 µM | SK-MEL-2 > 100 µM | CAKI-1 > 100 µM
